We go through 5 molecules from patent publication US20110028566A1, “COMPOSITIONS AND PRODUCTS CONTAINING CYCLOALIPHATIC DIOL ANTIMICROBIAL AGENTS AND METHODS OF USING THE COMPOSITIONS AND PRODUCTS” (EASTMAN CHEMICAL COMPANY, priority 2009, published 2011).

Several values for one entry are separate records, joined by “and”; a condition that tells them apart may be missing. Identical values can stand only once.

Experiment in all cases: MIC determination and synergy testing (Kull synergy index), microplate
What all share (assay type): cell-based

Test [1] concerns Escherichia coli ATCC 25922. Conditions: E. coli; for QB, MIC of PE alone: plates 105A, 213A, 223A; for QB, MIC of MP alone: plate 108A. On the procedure: (§1) The test cultures are listed in Table 7 along with the incubation temperatures used for growth and minimum inhibitory concentration (MIC) testing. […] C. albicans was cultured in Sabouraud dextrose broth (SDB) for approximately 44-52 hours for preparation of inoculum. A. niger was cultured on Sabouraud dextrose agar (SDA) for 3-4 days until there was confluent growth and visible spore formation. Spores were harvested from the SDA plates by flooding the surface of the plate with 5-10 mL of phosphate-buffered saline (PBS) and gently spreading the liquid across the surface of the plate with a sterile T-shaped plastic spreader (Copan Diagnostics) until there was a well-mixed suspension of spores. The resulting spore suspension was collected using a serological pipette and stored at 2-8° C. until use.
(§2) Inoculum concentration was determined by dilution plating of the cultures or spore suspension. A serial dilution in PBS was made to 10^−8 for the bacterial cultures or 10^−5 for the fungal cultures. Fifty or 100 μL of the final dilution was spread on two Trypticase-soy agar (TSA) plates for bacteria or two SDA plates for fungi. After 24 to 48 hours plates were counted and the concentrations used in each experiment were calculated.
(§3) The antimicrobial agents tested for synergy along with the respective diluents and working stock solution concentrations are shown below. For determination of MIC ranges, individual antimicrobial agent stock solutions were added to sterile medium to yield the highest level test concentrations, and then serially diluted in the medium to prepare the range of test concentrations. For synergy testing individual test concentrations were prepared in sterile medium, and then blended to form the desired combinations.
(§4) MICs were determined using a high-throughput microplate method. Individual antimicrobial agents were added to TSB (pH 7.3) for bacterial testing or SDB (pH 5.6) for fungal testing at the highest concentration to be tested. A serial dilution series was prepared at a dilution ratio of 1:1.3333 such that a one log range was covered in nine dilutions. Two-hundred microliters of the diluted antimicrobial agents were dispensed into four wells each of a sterile, 96-well, flat-bottom microplate (Nalge Nunc International). Four additional wells of the highest concentration were dispensed to serve as uninoculated high-level controls. Eight additional wells containing only broth medium were also prepared, four to serve as negative controls and four as positive controls. Three wells of each antimicrobial agent dilution were inoculated with one of the test strains in Table 7. The final well of each antimicrobial agent dilution was left uninoculated to serve as a control (and means of compensating) for any absorbance/turbidity due to the test compounds.
(§5) Microplates were inoculated using the cultures or spore suspensions prepared as described above. The S. aureus cultures were used undiluted, while the E. coli and P. aeruginosa cultures were used either undiluted or after a 1:2 dilution in sterile TSB. The C. albicans cultures were used either undiluted or following a 2-fold concentration by centrifugation. One of two means of inoculation was used to deliver a final concentration of approximately 10^5 colony-forming units (CFU)/mL of C. albicans, 10^5 spores/mL of A. niger, or 10^6 CFU/mL of bacteria. The primary method used a stainless steel pin replicator (Nalge Nunc International) mounted on a hand-operated bench-top press (Schmidt Technology Corporation) fitted with a custom-built microplate holder to dispense one microliter of each inoculum from a “master” plate containing 50-100 μL of culture into the wells of the test plate. The pin replicator was sterilized before and between inoculations by immersing in ethanol and flaming. The alternative method of inoculation was by directly pipetting 20 μL of a 1:20 dilution of each culture or spore suspension into the appropriate wells of the test plates.

Test [2] has as its system Staphylococcus aureus ATCC 25923. Conditions: for QB, MIC of CG alone: plate 125D. On the procedure:
as §1, §2, §3, §4, §5

Test [3] deals with Aspergillus niger ATCC 16404. Conditions: for QB, MIC of PE alone / QB, MIC of CG alone: A. niger; for QB, MIC of PE alone: plates 122C, 242C. On the procedure: as §1, §2
The A. niger spore suspensions were concentrated to a level of 1-2×10^8 spores/mL by centrifugation and resuspension in a portion of the resulting supernatant.
as §3, §4
Microplates were inoculated using the cultures or spore suspensions prepared as described above. The S. aureus cultures were used undiluted, while the E. coli and P. aeruginosa cultures were used either undiluted or after a 1:2 dilution in sterile TSB. The C. albicans cultures were used either undiluted or following a 2-fold concentration by centrifugation. One of two means of inoculation was used to deliver a final concentration of approximately 10^5 colony-forming units (CFU)/mL of C. albicans, 10^5 spores/mL of A. niger, or 10^6 CFU/mL of bacteria. The primary method used a stainless steel pin replicator (Nalge Nunc International) mounted on a hand-operated bench-top press (Schmidt Technology Corporation) fitted with a custom-built microplate holder to dispense one microliter of each inoculum from a “master” plate containing 50-100 μL of culture into the wells of the test plate. The pin replicator was sterilized before and between inoculations by immersing in ethanol and flaming. […]

In test [4] the test system is Candida albicans ATCC 10231. Conditions: for QB, MIC of PE alone: plates 116B, 240B, 252B; for QB, MIC of MP alone: plate 128B. On the procedure: as §1, §2, §3, §4, §5
For test [5], the system named is Pseudomonas aeruginosa ATCC 27853. Conditions: for QB, MIC of CG alone: P. aeruginosa, plate 169E. As to the method:
as §1, §2, §3, §4, §5

Where [6] appears, read: C. albicans, day 2 of incubation.
Where [7] appears, read: C. albicans, day 3 of incubation.

Turning to `OCCOc1ccccc1` [Phenoxyethanol (PE)], the “QB, MIC of PE alone” value in test [1] (day 1 of incubation) is 0.36 weight percent and 0.33 weight percent and 0.48 weight percent; in test [1] (day 2 of incubation) it was 0.48 weight percent and 0.36 weight percent and 0.43 weight percent; in test [2] (S. aureus, day 2 of incubation, plates 124D, 219D) it was 0.73 weight percent and 0.55 weight percent; in test [3] (day 2 of incubation), 0.24 weight percent and 0.30 weight percent; in test [3] (day 3 of incubation) it was 0.24 weight percent and 0.40 weight percent; in test [4] (setting [6]), 0.22 weight percent and 0.27 weight percent and 0.23 weight percent. Besides, the “QB, MIC of PE alone” value in test [4] (setting [7]) is 0.22 weight percent and 0.27 weight percent and 0.30 weight percent.

For the molecule `CCCCCCC(O)CO` (centres unmarked) [Caprylyl glycol (CG)], the “QB, MIC of CG alone” value in test [2] (S. aureus, day 1 of incubation) is 0.24 weight percent; in test [2] (S. aureus, day 2 of incubation), 0.32 weight percent; in test [5] (day 1 of incubation) it was 0.23 weight percent; in test [5] (day 2 of incubation), 0.30 weight percent; in test [5] (day 3 of incubation), 0.30 weight percent; in test [3] (day 2 of incubation, plates 123C, 217C), 0.17 weight percent and 0.10 weight percent. Also, the “QB, MIC of CG alone” value is 0.13 weight percent in test [3] (day 3 of incubation, plate 123C); 0.11 weight percent and 0.22 weight percent in test [4] (C. albicans, day 3 of incubation, plates 117B, 254B).

`Cn1sccc1=O` [MIT, Methylisothiazolinone, reference compound]: the QB/b in test [2] (MIT: MIC alone (QB) or conc. in combination with CHDM (b), plate 137D, day 2) is reported as 0.002; in test [5] (MIT: MIC alone (QB) or conc. in combination with CHDM (b), plate 147E, day 1), 0.00053; in test [5] (MIT: MIC alone (QB) or conc. in combination with CHDM (b), plate 147E, day 2) it was 0.00093; in test [5] (MIT: MIC alone (QB) or conc. in combination with CHDM (b), plate 210E, day 1), 0.0006; in test [5] (MIT: MIC alone (QB) or conc. in combination with CHDM (b), plate 210E, day 2), 0.001; in test [5] (MIT: MIC alone (QB) or conc. in combination with CHDM (b), plate 249E, day 1), 0.00048. Also, the QB/b stood at 0.0009 in test [5] (MIT: MIC alone (QB) or conc. in combination with CHDM (b), plate 249E, day 2); 0.04 in test [3] (MIT: MIC alone (QB) or conc. in combination with CHDM (b), plate 193C, day 2); 0.03 in test [3] (MIT: MIC alone (QB) or conc. in combination with CHDM (b), plate 193C, day 3); 0.04 in test [3] (MIT: MIC alone (QB) or conc. in combination with CHDM (b), plate 214C, day 2); 0.04 in test [3] (MIT: MIC alone (QB) or conc. in combination with CHDM (b), plate 214C, day 3); 0.012 in test [4] (MIT: MIC alone (QB) or conc. in combination with CHDM (b), plate 162B, day 3). Further, the QB/b was 0.021 in test [4] (MIT: MIC alone (QB) or conc. in combination with CHDM (b), plate 200B, day 2) and 0.021 in test [4] (MIT: MIC alone (QB) or conc. in combination with CHDM (b), plate 200B, day 3). For the same molecule, the “Synergism of antimicrobial agent in combination with 1,4-CHDM for P. aeruginosa (in words; in the 12th table the cell names the organism and table number)” value in test [5] (Kull synergy index, synergistic when at least two results SI<1) was “P. aeruginosa (26)”.

On to `COC(=O)c1ccc(O)cc1` [Methylparaben (MP)], for which the “QB, MIC of MP alone” value in test [1] (day 1 of incubation) came to 0.112 weight percent; in test [1] (day 2 of incubation), 0.112 weight percent; in test [4] (setting [6]) it was 0.060 weight percent; in test [4] (setting [7]), 0.080 weight percent.

In the case of `CC1(C)C(=O)N(CO)C(=O)N1CO` [DMDMH, DMDM Hydantoin, reference compound], the QB/b in test [5] (DMDM hydantoin alone (QB) or in combination with CHDM (b), plate 150E, day 1) stood at 0.049; in test [3] (DMDM hydantoin alone (QB) or in combination with CHDM (b), plate 196C, day 3), 0.14; in test [4] (DMDM hydantoin alone (QB) or in combination with CHDM (b), plate 241B, day 2), 0.22; in test [4] (DMDM hydantoin alone (QB) or in combination with CHDM (b), plate 241B, day 3), 0.22; in test [4] (DMDM hydantoin alone (QB) or in combination with CHDM (b), plate 244B, day 2) it was 0.36; in test [4] (DMDM hydantoin alone (QB) or in combination with CHDM (b), plate 244B, day 3), 0.36. Also, the QB/b is given as 0.45 in test [4] (DMDM hydantoin alone (QB) or in combination with CHDM (b), plate 263B, day 2); 0.80 in test [4] (DMDM hydantoin alone (QB) or in combination with CHDM (b), plate 263B, day 3); 0.34 in test [4] (DMDM hydantoin alone (QB) or in combination with CHDM (b), plate 264B, day 2); 0.60 in test [4] (DMDM hydantoin alone (QB) or in combination with CHDM (b), plate 264B, day 3).
